Measurements taken from patent publication US8093284B2, “Process for producing aqueous solution of doripenem” (Shionogi & Co., Ltd., priority 2005, dated 2012).

Tests used:
Format in all cases: physicochemical
[1] = Decomposition of doripenem on heating and dissolving an aqueous suspension with a continuous heating and dissolving equipment; conditions: continuous heating; position of 28 m of the equipment; heating source around 60° C., about 6 L/min, solution around 55° C. at outlet; 15.5 kg in 280 L water
Protocol: An aqueous suspension of doripenem (aqueous suspension in which 15.5 kg of doripenem had been mixed with 280 L of water) was cooled to 10° C. or lower to suppress decomposition during waiting. This aqueous suspension was passed through a continuous heating and dissolving equipment of an inner diameter of around 23 mm and a length of around 28 m, having a heating source at around 60° C. at about 6 L/min, and elevation in a temperature and dissolution were performed during passage through the machine to obtain an aqueous solution of doripenem at around 55° C. at an outlet of the dissolving machine. A decomposition degree of doripenem at a position of 28 m of the continuous heating and dissolving equipment was about 0.2%.

[2] = Decomposition of doripenem in an aqueous solution at 40, 50 or 60° C.; conditions: aqueous solution at 40° C., 50° C., or 60° C.
Protocol: Decomposition of doripenem in an aqueous solution of doripenem at 40° C., 50° C., or 60° C. was examined. […] FIG. 2, FIG. 3 and FIG. 4 show a doripenem decomposition curve at each temperature.

[3] = Decomposition of doripenem on heating and dissolving an aqueous suspension in a batch manner; conditions: heating medium around 60° C., solution around 55° C., measured immediately after dissolution, 15.5 kg in 280 L water
Protocol: An aqueous suspension of doripenem (aqueous suspension in which 15.5 kg of doripenem had been mixed with 280 L of water) was cooled to 10° C. or lower to suppress decomposition during waiting. This aqueous suspension was dissolved as it was using a heating medium at around 60° C. to obtain an aqueous solution of doripenem, at around 55° C. A decomposition degree of doripenem measured immediately after dissolution of doripenem was about 7%.

decomposition degree of doripenem [1]: about 0.2%
decomposition degree of doripenem [3]: about 7%
SMILES: C[C@@H](O)[C@H]1C(=O)N2C(C(=O)O)=C(S[C@@H]3CN[C@H](CNS(N)(=O)=O)C3)[C@H](C)[C@H]12 [doripenem]
decomposition of doripenem in aqueous solution [2]: decomposed at these temperatures with time
